Values joined by “and” are separate entries in the source; they are usually repeats but may differ in a detail not shown here. Equal entries are not always repeated. Where two headings read alike, the source gives them in different places.
What was measured:
ES2(ovarian) cells = assay: MTT assay ES2; format: cell-based, human; details: for viable cells by MTT assay: ES2, 10 ug/ml
[1] = test system: integrin (vitronectin receptor) expression in ES2 cells; assay: Microarray gene expression, Table 2; format: cell-based, human
Procedure: (§1) Y/D is the ratio (in folds) of gene expression in cells treated with compound Y as compared with those of the no drug control (D),
(§2) YM/D is the ratio of gene expression in cells treated with compound YM (ACH-Y, Y without sugar moiety) compared with those of the no drug control (D)
(§3) Cell culture and drug-treatment.: ES2 cells were seeded in a T-25 flask with 4.5 million cells per flask for 24 hours. Cell culture was replaced with fresh medium with xanifolia-Y (Y) or DMSO no drug control (D) for 24 hours. Cells were then harvested for RNA isolation. Three experiments were done.
(§4) RNA extraction, labeling, hybridization, and data analysis. RNA was extracted from tumor cells using the Qiagen RNeasy Kit. RNA quality and quantity was checked by the Agilent BioAnalyzer and the NanoDrop® ND-1000 spectrophotometer respectively before further manipulation. The first and second cDNA strands were synthesized from 20 ng of total RNA using the Affymetrix T7 oligo(dT) primer protocol and kit for the two-cycle amplification. To produce amplified biotin-labeled-cRNA, the cDNA was […] by in vitro transcription using the MegaScript kit from Ambion. 15.0 μg of the labeled cRNA was fragmented and re-checked for concentration using the NanoDrop® ND-1000 spectrophotometer. A hybridization cocktail containing Affymetrix spike-in controls and fragmented labeled cRNA was loaded onto the Human U133 Plus 2.0 GeneChip® oligonucleotide array. The Affymetrix array (Affymetrix, Inc. Santa Clara, Calif.) is comprised of over 1,300,000 unique oligonucleotide features that represent greater than 38,500 well-substantiated human genes. The array was hybridized for 16 hours at 45° C. with rotation at 60 rpm then washed and stained with a strepavidin, R-phycoerythrin conjugate stain on the Affymetrix Fluidicis Station 450. Signal amplification was done using biotinylated antistreptavidin. The arrays were scanned using the GeneChip® 3000 confocal laser scanner with autoloader. The images were analyzed and quality control metrics recorded using Affymetrix GCOS software version 1.4. Lastly, the expression value for each gene was calculated using dChip PM-only model based or Plier algorithm.
(§5) Pairwise comparisons were made as follows: Treated vs. Control (Y vs. D), Modified Drug vs Control (YM/ACY-H vs. D) and Treated vs. Modified Drug (Y vs. YM/ACH-Y) Cel files analyzed using the Bioconductor package of R Statistical programming. Limma analysis generated a reasonable number of changing genes between the samples.
The raw data in the .CEL files were normalized by the GCRMA method (robust multi-array analysis). It is implemented in Bioconductor (http://www.bioconductor.org/). […]

[2] = test system: laminin expression in ES2 cells; assay: Microarray gene expression, Table 3; format: cell-based, human; details: for LAMC1, gene expression ratio to no drug control (D): probe 200770_s_at; for LAMB1 laminin, beta 1, gene expression ratio to no drug control (D): probe 201505_at; for LAMA4 laminin, alpha 4, gene expression ratio to no drug control (D): probe 202202_s_at; for LAMB1, gene expression ratio to no drug control (D): probe 211651_s_at; for LAMB2, gene expression ratio to no drug control (D): probe 216264_s_at
Procedure: as §1, §2, §3, §4, §5
(§6) The raw data in the .CEL files were normalized by the GCRMA method (robust multi-array analysis). It is implemented in Bioconductor (http://www.bioconductor.org/). The raw signal intensity data were normalized, background corrected and summarized based on certain statistical models, and an expression value, in log 2-scale, is obtained per chip per probe set. Then the null hypothesis was tested that there's no significant changes in gene expression between the treatment pairs. This was done by LIMMA and is also implemented in Bioconductor. It uses empirical Bayes method to estimate the variance in gene expression. One comparison was made, namely, High Grade vs. Low Grade. The raw p-values were adjusted by the Benjamnin-Hochberg method for false discovery rate (FDR) control. All data sets contained a significant number of genes with a p-value less than 0.05, which is that the probability that a gene is NOT differential expressed (false positive) is 1:20.

[3] = test system: insulin-like growth factor binding protein expression in ES2 cells; assay: Microarray gene expression, Table 16; format: cell-based, human; details: for IGFBP7 insulin-like growth factor binding protein 7, gene expression ratio to no drug control (D): probe 201163_s_at; for IGFBP4 insulin-like growth factor binding protein 4, gene expression ratio to no drug control (D): probe 201508_at; for IGFBP6 insulin-like growth factor binding protein 6, gene expression ratio to no drug control (D): probe 203851_at; for IGFBP1 insulin-like growth factor binding protein 1, gene expression ratio to no drug control (D): probe 205302_at
Procedure: as §1, §2, §3, §4, §5, §6

[4] = test system: RAB3B, member RAS oncogene family protein expression in ES2 cells; assay: Microarray gene expression, Table 17; format: cell-based, human
Procedure: as §1, §2, §3, §4, §5, §6

Caov 3 = assay: MTT assay Caov 3; format: cell-based; details: Homo sapiens; Caov 3, Serous
Procedure: Majority of ovarian cancers arise from the surface epithelium of ovary, most of them belong to the histological subtypes of clear cell and serous carcinoma. We obtained 10 more human ovarian carcinoma cell-lines of these histological subtypes for these studies. The inhibition activity exerted by Xanifolia-Y was determined with MTT assay.

[5] = Homo sapiens, ES-2, ES2 cells, read-out: IC50

| Compound | IC50 (ES2(ovarian) cells; [5]) [µg/mL] | ITGAV integrin, alpha V (vitronectin receptor), gene expression ratio to no drug control (D) ([1]; probe 202351_at) [folds] | ITGAV integrin, alpha V (vitronectin receptor), gene expression ratio to no drug control (D) ([1]; probe 236251_at) [folds] | LAMB1 laminin, beta 1, gene expression ratio to no drug control (D) [2] [folds] | LAMA4 laminin, alpha 4, gene expression ratio to no drug control (D) [2] [folds] | LAMB1, gene expression ratio to no drug control (D) [2] [folds] | LAMB2, gene expression ratio to no drug control (D) [2] [folds] | IGFBP7 insulin-like growth factor binding protein 7, gene expression ratio to no drug control (D) [3] [folds] | IGFBP4 insulin-like growth factor binding protein 4, gene expression ratio to no drug control (D) [3] [folds] | IGFBP6 insulin-like growth factor binding protein 6, gene expression ratio to no drug control (D) [3] [folds] | IGFBP1 insulin-like growth factor binding protein 1, gene expression ratio to no drug control (D) [3] [folds] | IGFBP3 insulin-like growth factor binding protein 3, gene expression ratio to no drug control (D) ([3]; probe 210095_s_at) [folds] | IGFBP3 insulin-like growth factor binding protein 3, gene expression ratio to no drug control (D) ([3]; probe 212143_s_at) [folds] | RAB3B, member RAS oncogene family, gene expression ratio to no drug control (D) ([4]; probe 205924_at) [folds] | RAB3B, member RAS oncogene family, gene expression ratio to no drug control (D) ([4]; probe 205925_s_at) [folds] | RAB3B, member RAS oncogene family, gene expression ratio to no drug control (D) ([4]; probe 227123_at) [folds] | RAB3B, member RAS oncogene family, gene expression ratio to no drug control (D) ([4]; probe 242629_at) [folds] | also measured |
| --- | --- | --- | --- | --- | --- | --- | --- | --- | --- | --- | --- | --- | --- | --- | --- | --- | --- | --- |
| C/C=C(/C)C(=O)O[C@H]1[C@H](OC(=O)/C(C)=C\C)[C@@]2(CO)C(CC1(C)C)C1=CCC3[C@@]4(C)CC[C@H](O)C(C)(C)C4CC[C@@]3(C)[C@]1(C)[C@@H](O)[C@H]2O (stereo partly drawn) [ACH-Y] | 20 | −1.3 | −1.4 | −2.0 | −2.0 | −1.7 | −2.0 | −2.7 | −2.4 | −1.8 | −1.8 | −3.5 | −5.3 | −1.8 | −1.2 | −1.2 | −1.8 | LAMC1, gene expression ratio to no drug control (D) ([2]; listed as YM): −1.1 folds; LAMC1, gene expression ratio to no drug control (D) ([2]; listed as YM/ACH-Y): 1.1 folds |
| C/C=C(/C)C(=O)O[C@H]1[C@H](OC(=O)/C(C)=C\C)[C@@]2(CO)C(CC1(C)C)C1=CCC3[C@@]4(C)CC[C@H](O[C@@H]5OC(C(=O)O)[C@@H](O)C(O[C@@H]6O[C@@H](CO)C(O)C6O)C5O[C@@H]5OC(CO)[C@H](O)C(O)C5O)C(C)(C)C4CC[C@@]3(C)[C@]1(C)[C@@H](O)[C@H]2O (stereo partly drawn) [Xanifolia-Y, 3-O-[β-D-galactopyranosyl (1→2)]-α-L-arabinofuranosy (1→3)-β-D-glucuronopyranosyl-21,22-O-diangeloyl-3β, 15α, 16α, 21β, 22α, 28-hexahydroxyolean-12-ene] | 5 | −1.8 | −1.4 | −1.6 | −2.2 | −1.6 | −2.0 | −1.4 | −1.7 | −1.3 | −1.7 | −4.0 | −3.7 | −1.7 | −1.2 | −1.6 | −3.5 | growth of cells compared to the DMSO control (MTT) (ES2(ovarian) cells; ES2, 10 ug/ml (F13)): 89%; viable cells by MTT assay (ES2(ovarian) cells; 7 hours): 93%; viable cells by MTT assay (ES2(ovarian) cells; 18 hours): Over 95%; viable cells by MTT assay (ES2(ovarian) cells; 24 hours): 85% and 87%; IC50 (ES2(ovarian) cells; ES2 cells): 4.4 µg/mL; IC50 (ES2(ovarian) cells; Homo sapiens, ES2, Clear cell, read-out: IC50): 4.4 µM; IC50 (ES2(ovarian) cells; Homo sapiens, ES-2, ES2 cells, combined with Paclitaxel, read-out: IC50 value for Xanifolia-Y when both drugs were used): 2.5 µg/mL; IC50 (Caov 3): 7 µM; LAMC1, gene expression ratio to no drug control (D) [2]: −1.9 folds |
